Measured values as given in patent EP1144368B1, “ACETYLENIC ALPHA-AMINO ACID-BASED SULFONAMIDE HYDROXAMIC ACID TACE INHIBITORS” (priority 1999, dated 2000).
Structures can show the parent of a compound that is named as a salt. Where two headings read alike, the source gives them in different places.

Tested on: THP-1 cells
Assay: THP-1 Soluble Protein Assay (LPS-stimulated; ELISA of TNF-a, TNF-R p75/80, TNF-R p55/60, IL-8)
Format: cell-based, human
Details: for inhibition at 3 µM: Homo sapiens
[1] = THP-1, 3 µM, read-out: THP % Inhibition @ 3µM
[2] = THP-1, read-out: THP % inhibition @ 3 µM, 3 µM

Row | SMILES | inhibition at 3 µM [2] [%] | also measured
1 | CC#CCOc1ccc(S(=O)(=O)N2C[C@H](CC(=O)OC(C)(C)C)SC(C)(C)[C@@H]2C(=O)NO)cc1 [Example 277, tert-Butyl{(2S,5S)-4-{[4-(2-butynyloxy)phenyl]sulfonyl}-5-[(hydroxyamino)carbonyl]-6,6-dimethylthiomorpholinyl}acetate] |  | inhibition at 3 µM [1]: 69%
2 | CC#CCOc1ccc(S(=O)(=O)N[C@@H](C(=O)NO)c2ccc(OCCNC(C)=O)cc2)cc1 [Example 201, (2R)-2-{4-[2-(Acetylamino)ethoxy]phenyl}-2-({[4-(2-butynyloxy)phenyl]sulfonyl}amino)-N-hydroxyethanamide] | 77 | 
3 | CC(C)(C)OC(=O)NCCCC#CCOc1ccc(S(=O)(=O)N2CCSC(C)(C)[C@@H]2C(=O)NO)cc1 [Example 250, tert-Butyl 6-[4-({(3S)-3-[(hydroxyamino)carbonyl]-2,2-dimethylthiomorpholinyl}sulfonyl)phenoxy]-4-hexynylcarbamate] | 27 | 
4 | CC#CCOc1ccc(S(=O)(=O)N[C@@H](C(=O)NO)c2ccc(OCCN)cc2)cc1 [Example 200, (2R)-2-[4-(2-Aminoethoxy)phenyl]-2-({[4-(2-butynyloxy)phenyl]sulfonyl}amino)-N-hydroxyethanamide] | 78 | 
5 | CC#CCOc1ccc(S(=O)(=O)N2C[C@H](CC(=O)N(C)C)SC(C)(C)[C@@H]2C(=O)NO)cc1 [Example 281, (3S,6S)-4-{[4-(2-Butynyloxy)phenyl]sulfonyl}-6-[2-(dimethylamino)-2-oxoethyl]-N-hydroxy-2,2-dimethyl-3-thiomorpholinecarboxamide] |  | inhibition at 3 µM [1]: 76%
6 | CC#CCOc1ccc(S(=O)(=O)N(C)C2(C(=O)NO)CCCCC2)cc1 [Example 136, 1-[{[4-(2-Butynyloxy)phenyl]sulfonyl}(methyl)amino] -N-hydroxycyclohexanecarboxamide] | 0 | 
7 | CC#CCOc1ccc(S(=O)(=O)N(Cc2cccnc2)C(C(=O)NO)C(C)C)cc1 (centres unmarked) [Example 114, 2-[(4-But-2-ynyloxy-benzenesulfonyl)-pyridin-3-ylmethyl-amino]-N-hydroxy-3-methyl-butyramide] | 75 | 
8 | C#CCN(C(C(=O)NO)C(C)C)S(=O)(=O)c1ccc(OCC#CC)cc1 (centres unmarked) [Example 109, 2-[{[4-(2-Butynyloxy)phenyl]sulfonyl}(2-propynyl)amino]-N-hydroxy-3-methylbutanamide] | 85 | 
9 | CC#CCOc1ccc(S(=O)(=O)N2CCN(C(=O)N(C(C)C)C(C)C)CC2C(=O)NO)cc1 (centres unmarked) [Example 218, 4-(4-But-2-ynyloxy-benzenesulfonyl)-piperazine-1,3-dicarboxylic acid 1-diisopropylamide 3-hydroxyamide] | 56 | 
10 | CC#CCOc1ccc(S(=O)(=O)N2CC[S+]([O-])C(C)(C)C2C(=O)NO)cc1 (single isomer, unassigned) [Example 255] |  | THP % inhibition @ 3 µM (3 µM): 95%
11 | CC#CCOc1ccc(S(=O)(=O)N(C)C(C(=O)NO)C(C)(C)SCCCN2CCOCC2)cc1 (centres unmarked) [Example 146] | 84 | 
12 | CC#CCOc1ccc(S(=O)(=O)N(C)C(C(=O)NO)c2ccc(OCCN3CCCC3=O)cc2)cc1 (centres unmarked) [Example 184, 2-[{[4-(2-Butynyloxy)phenyl]sulfonyl}(methyl)amino]-N-hydroxy-2-{4-[2-(2-oxo-1-pyrrolidinyl)ethoxy]phenyl}acetamide] | 94 | 
13 | CC#CCOc1ccc(S(=O)(=O)N2CCN(C(=O)Nc3ccc(F)cc3)CC2C(=O)NO)cc1 (centres unmarked) [Example 222, 4-{[4-(2-Butynyloxy)phenyl]sulfonyl}-N-1-(4-fluorophenyl)-N-3-hydroxy-1,3-piperazinedicarboxamide] | 61 | 
14 | CC#CCOc1ccc(S(=O)(=O)N(Cc2cccnc2)C(C)C(=O)NO)cc1 (centres unmarked) [Example 33, 2-[(4-But-2-ynyloxy-benzenesulfonyl)-pyridin-3-ylmethyl-amino]-N-hydroxy-propionamide hydrochloride] | 80 | 
